What all share (format): cell-based
In series [1] the test system is primary human hepatocyte (PHH). Nature of the series: PHH natural infection assay, cytotoxicity (Cell Counting Kit-8). Particulars: HBV-infected primary human hepatocytes, CCK8, end of treatment. An outline of the steps: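 HBV-infected at 200 GE/cell with 4% PEG8000 for 24 h, then sandwich-cultured 72 h in 1% DMSO and 0.25 mg/mL matrix gel. Compound added twice at 72-h intervals; supernatant HBsAg and HBeAg read by AlphaLISA, HBV DNA by quantitative fluorescence PCR kit. Cytotoxicity by CCK-8.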
On the technique in general: Tetrazolium dyes change colour on reduction, which living cells bring about.

In series [2] the test system is HBeAg. Nature of the series: PHH HBV natural infection assay, HBeAg (alphalisa). The procedure, abridged: (§1)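 Primary human hepatocytes infected with HBV at 200 GE/cell plus 4% PEG8000 for 24 h, then sandwich-cultured 72 h. Compounds were added in two refreshes 72 h apart. HBsAg and HBeAg in supernatant measured by AlphaLISA.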
For orientation: Bead proximity is the source of the signal in Alpha formats.

In series [3] the test system is HBsAg. Nature of the series: PHH HBV natural infection assay, HBsAg (alphalisa). The procedure, abridged:
as §1

[4] abbreviates: read-out: HbeAg IC50; HBV-infected primary human hepatocytes, supernatant, compound medium refreshed two times with 72-hour interval.
Where [5] appears, read: read-out: HBsAg IC50; HBV-infected primary human hepatocytes, supernatant, compound medium refreshed two times with 72-hour interval.

Where two headings read alike, the source gives them in different places.

As usually defined, the CC50 is the concentration at which the toxic effect on the cells reaches its halfway point. As a reminder, the IC50 is the concentration that inhibits the measured activity by half. `N=S(=O)(CC1CC1)c1ccc(C(=O)NC2CC3(C2)CC(c2nc4cc(Cl)ccc4o2)C3)o1` (single isomer, unassigned) [Example 54-a, N-[6-(5-chloro-1,3-benzoxazol-2-yl)spiro[3.3]heptan-2-yl]-5-(cyclopropylmethylsulfonimidoyl)furan-2-carboxamide] registered a cytotoxic concentration (CC50) in series [1] of more than 10000 nM. Moreover, the figures for the IC50 in series [2] (setting [4]) and in series [3] (setting [5]) were 5700 nM and 6060 nM, respectively.
Regarding `N=S(=O)(CC1CC1)c1ccc(C(=O)NC2CC3(C2)CC(c2nc4cc(Cl)ccc4o2)C3)o1` (single isomer, unassigned) [Example 54-c, N-[6-(5-chloro-1,3-benzoxazol-2-yl)spiro[3.3]heptan-2-yl]-5-(cyclopropylmethylsulfonimidoyl)furan-2-carboxamide], the CC50 in series [1] was more than 10000 nM. Further, the half-inhibitory concentration (IC50) in series [2] (setting [4]) stood at 4590 nM; in series [3] (setting [5]) it was 5840 nM.
For `N=S(=O)(c1ccc(C(=O)NC2CC3(C2)CC(c2nc4cc(Cl)ccc4o2)C3)o1)C1CC1` (single isomer, unassigned) [Example 53-b, N-[6-(5-chloro-1,3-benzoxazol-2-yl)spiro[3.3]heptan-2-yl]-5-(cyclopropylsulfonimidoyl)furan-2-carboxamide] the same measures were more than 10000 nM, 4650 nM and 6830 nM.
For `O=C(NC1CC2(C1)CC(c1nc3cc(Cl)cnc3o1)C2)c1ccc(S(=O)(=O)C2CC2)o1` (single isomer, unassigned) [Example 49-b, N-[6-(6-chlorooxazolo[5,4-b]pyridin-2-yl)spiro[3.3]heptan-2-yl]-5-cyclopropylsulfonyl-furan-2-carboxamide] the same measures were 91500 nM, 626 nM and 647 nM.
The like results for `N=S(=O)(c1ccc(C(=O)NC2CC3(C2)CC(c2nc4cc(Cl)ccc4o2)C3)o1)C1CC1` (single isomer, unassigned) [Example 53-a, N-[6-(5-chloro-1,3-benzoxazol-2-yl)spiro[3.3]heptan-2-yl]-5-(cyclopropylsulfonimidoyl)furan-2-carboxamide] were, in that order, more than 10000 nM, 1270 nM and 1890 nM.
In turn, `N=S(=O)(CC1CC1)c1ccc(C(=O)NC2CC3(C2)CC(c2nc4cc(Cl)ccc4o2)C3)o1` (single isomer, unassigned) [Example 54-b, N-[6-(5-chloro-1,3-benzoxazol-2-yl)spiro[3.3]heptan-2-yl]-5-(cyclopropylmethylsulfonimidoyl)furan-2-carboxamide] yielded a CC50 in series [1] of more than 100000 nM. Further, the IC50 in series [2] (setting [4]) stood at 166 nM; in series [3] (setting [5]), 285 nM.
For `N=S(=O)(c1ccc(C(=O)NC2CC3(C2)CC(c2nc4cc(Cl)ccc4o2)C3)o1)C1CC1` (single isomer, unassigned) [Example 53-d, N-[6-(5-chloro-1,3-benzoxazol-2-yl)spiro[3.3]heptan-2-yl]-5-(cyclopropylsulfonimidoyl)furan-2-carboxamide] the same measures were 92800 nM, 1340 nM and 1120 nM.
For `NS(=O)(=O)c1ccc(C(=O)NC2CC3(C2)CC(c2nc4cc(Cl)ccc4o2)C3)o1` (single isomer, unassigned) [Example 29-b, N-[6-(5-chloro-1,3-benzoxazol-2-yl)spiro[3.3]heptan-2-yl]-5-sulfamoyl-furan-2-carboxamide] the same measures were more than 100000 nM, 909 nM and 1550 nM.
The like results for `O=C(NC1CC2(C1)CC(c1nc3cc(Cl)ccc3o1)C2)c1ccc([S+]([O-])CC2CC2)o1` (single isomer, unassigned) [Example 19-d, N-[6-(5-chloro-1,3-benzoxazol-2-yl)spiro[3.3]heptan-2-yl]-5-(cyclopropylmethylsulfinyl)furan-2-carboxamide] were, in that order, more than 10000 nM, 2500 nM and 2860 nM.
On to `CS(=N)(=O)c1ccc(C(=O)NC2CC3(C2)CC(c2nc4cc(Cl)ccc4o2)C3)o1` (single isomer, unassigned) [Example 52-b, N-[6-(5-chloro-1,3-benzoxazol-2-yl)spiro[3.3]heptan-2-yl]-5-(methylsulfonimidoyl)furan-2-carboxamide], for which the CC50 in series [1] was more than 100000 nM. In addition, the IC50 came to 898 nM in series [2] (setting [4]) and 939 nM in series [3] (setting [5]).
For `O=C(NC1CC2(C1)CC(c1nc3cc(Cl)ccc3o1)C2)c1ccc([S+]([O-])CC2CC2)o1` (single isomer, unassigned) [Example 19-c, N-[6-(5-chloro-1,3-benzoxazol-2-yl)spiro[3.3]heptan-2-yl]-5-(cyclopropylmethylsulfinyl)furan-2-carboxamide] the same measures were more than 10000 nM, 1950 nM and 2420 nM.
For the compound `CCC(=O)NS(=O)(=O)c1ccc(C(=O)NC2CC3(C2)CC(c2nc4cc(Cl)ccc4o2)C3)o1` (stereo not drawn) [Example 68, (Sa)—N-[6-(5-chloro-1,3-benzoxazol-2-yl)spiro[3.3]heptan-2-yl]-5-(propanoylsulfamoyl)furan-2-carboxamide, or (Ra)—N-[6-(5-chloro-1,3-benzoxazol-2-yl)spiro[3.3]heptan-2-yl]-5-(propanoylsulfamoyl)furan-2-carboxamide], in series [1], the CC50 is more than 100000 nM. The half-inhibitory concentration (IC50) came to 371 nM in series [2] (HBV-infected primary human hepatocytes, supernatant, compound medium refreshed two times with 72-hour interval; read-out: HbeAg IC50) and 626 nM in series [3] (HBV-infected primary human hepatocytes, supernatant, compound medium refreshed two times with 72-hour interval; read-out: HBsAg IC50).
In the case of `O=C(NC1CC2(C1)CC(c1nc3cc(Cl)ccc3o1)C2)c1ccc([S+]([O-])CC2CC2)o1` (single isomer, unassigned) [Example 19-b, N-[6-(5-chloro-1,3-benzoxazol-2-yl)spiro[3.3]heptan-2-yl]-5-(cyclopropylmethylsulfinyl)furan-2-carboxamide], the CC50 in series [1] is more than 10000 nM. Moreover, the results for the IC50 in series [2] (setting [4]) and in series [3] (setting [5]) were 53 nM and 71 nM, respectively.
The like results for `N=S(=O)(c1ccc(C(=O)NC2CC3(C2)CC(c2nc4cc(Cl)cnc4o2)C3)o1)C1CC1` (single isomer, unassigned) [Example 64-b, N-[6-(6-chlorooxazolo[5,4-b]pyridin-2-yl)spiro[3.3]heptan-2-yl]-5-(cyclopropylsulfonimidoyl)furan-2-carboxamide] were, in that order, more than 10000 nM, 9130 nM and 9460 nM.

The values are drawn from US20230286969A1, “AROMATIC SPIRO RING AMIDE DERIVATIVES FOR THE TREATMENT AND PROPHYLAXIS OF HEPATITIS B VIRUS INFECTION” (Hoffmann-La Roche Inc., priority 2020, published 2023).
